Experimental data reported in patent US20250144067A1, “PERSONALIZED STARVATION THERAPY FOR CANCER” (Faeth Therapeutics, Inc., priority 2021, published 2025).

The compounds below were run on NCI-H292 lung cancer cells (assay: FDA drug screening, complete media vs cholesterol-free media without statin (TABLE 1)). Conditions: NCI-H292 cells, cholesterol-free media without statin.
Format: cell-based, human
For `C[C@H](CCC(=O)O)[C@H]1CC[C@H]2[C@@H]3C[C@H](O)[C@@H]4C[C@H](O)CC[C@]4(C)[C@H]3CC[C@]12C` [Hyodeoxycholic acid], the Cholesterol-free was 1.462.
Compound `CC(C)Cc1ccc(C(C)C(=O)O)cc1` (centres unmarked) [Ibuprofen] has a Cholesterol-free of 1.419.
`CS(=O)(=O)Nc1cc2occ(NC=O)c(=O)c2cc1Oc1ccccc1` [Iguratimod] showed a Cholesterol-free of 1.252.
Work on `COc1ccnc(C[S+]([O-])c2nc3cc(-n4cccc4)ccc3[nH]2)c1C` (centres unmarked) [Ilaprazole (sodium)] yielded a Cholesterol-free of 1.162.
`Cc1ccc(NC(=O)c2ccc(CN3CCN(C)CC3)cc2)cc1Nc1nccc(-c2cccnc2)n1` [Imatinib] gave a Cholesterol-free of 1.28.

Same assay, conditions: NCI-H292 cells, cholesterol-free media without statin, FDA drug library screen
Work on `C[C@]12CCC(=O)C=C1CC[C@@H]1[C@@H]2[C@@H](O)C[C@@]2(C)[C@H]1CC[C@]2(O)C(=O)CO` [Hydrocortisone] yielded a Cholesterol-free of 0.8914.
In the case of `O=C(O)c1cc2ccccc2c(Cc2c(O)c(C(=O)O)cc3ccccc23)c1O.OCCOCCN1CCN(C(c2ccccc2)c2ccc(Cl)cc2)CC1` [Hydroxyzine (pamoate)], the Cholesterol-free is reported as 0.6403.
`O=c1[nH]c(=O)n([C@H]2C[C@H](O)[C@@H](CO)O2)cc1I` [Idoxuridine] showed a Cholesterol-free of 0.8751.

Same assay, conditions: NCI-H292 cells, complete media
With `C[C@H](CCC(=O)O)[C@H]1CC[C@H]2[C@@H]3C[C@H](O)[C@@H]4C[C@H](O)CC[C@]4(C)[C@H]3CC[C@]12C` [Hyodeoxycholic acid] the Complete was 1.016.
`CC(C)Cc1ccc(C(C)C(=O)O)cc1` (centres unmarked) [Ibuprofen] showed a Complete of 1.058.
With `CS(=O)(=O)Nc1cc2occ(NC=O)c(=O)c2cc1Oc1ccccc1` [Iguratimod] the Complete was 0.9044.
With `COc1ccnc(C[S+]([O-])c2nc3cc(-n4cccc4)ccc3[nH]2)c1C` (centres unmarked) [Ilaprazole (sodium)] the Complete was 0.7783.
`Cc1ccc(NC(=O)c2ccc(CN3CCN(C)CC3)cc2)cc1Nc1nccc(-c2cccnc2)n1` [Imatinib] was tested, and the Complete was 0.9175.

Same assay, conditions: NCI-H292 cells, complete media, FDA drug library screen
Compound `C[C@]12CCC(=O)C=C1CC[C@@H]1[C@@H]2[C@@H](O)C[C@@]2(C)[C@H]1CC[C@]2(O)C(=O)CO` [Hydrocortisone] has a Complete of 1.03.
Compound `O=C(O)c1cc2ccccc2c(Cc2c(O)c(C(=O)O)cc3ccccc23)c1O.OCCOCCN1CCN(C(c2ccccc2)c2ccc(Cl)cc2)CC1` [Hydroxyzine (pamoate)] has a Complete of 0.9622.
For `O=c1[nH]c(=O)n([C@H]2C[C@H](O)[C@@H](CO)O2)cc1I` [Idoxuridine], the Complete was 1.387.

Same assay, conditions: complete vs cholesterol-free media; >0 enhanced anti-cancer activity, about 0 neutral, <0 antagonist
In the case of `C[C@]12CCC(=O)C=C1CC[C@@H]1[C@@H]2[C@@H](O)C[C@@]2(C)[C@H]1CC[C@]2(O)C(=O)CO` [Hydrocortisone], the Difference is reported as 0.14.
Work on `O=C(O)c1cc2ccccc2c(Cc2c(O)c(C(=O)O)cc3ccccc23)c1O.OCCOCCN1CCN(C(c2ccccc2)c2ccc(Cl)cc2)CC1` [Hydroxyzine (pamoate)] yielded a Difference of 0.32.
In the case of `O=c1[nH]c(=O)n([C@H]2C[C@H](O)[C@@H](CO)O2)cc1I` [Idoxuridine], the Difference is reported as 0.51.

Same assay, conditions: complete vs cholesterol-free media; greater than 0 enhanced anti-cancer activity, about 0 neutral, below 0 antagonists
`C[C@H](CCC(=O)O)[C@H]1CC[C@H]2[C@@H]3C[C@H](O)[C@@H]4C[C@H](O)CC[C@]4(C)[C@H]3CC[C@]12C` [Hyodeoxycholic acid] showed a Difference of −0.45.
`CC(C)Cc1ccc(C(C)C(=O)O)cc1` (centres unmarked) [Ibuprofen] was tested, and the Difference was −0.36.
`CS(=O)(=O)Nc1cc2occ(NC=O)c(=O)c2cc1Oc1ccccc1` [Iguratimod] showed a Difference of −0.35.
`COc1ccnc(C[S+]([O-])c2nc3cc(-n4cccc4)ccc3[nH]2)c1C` (centres unmarked) [Ilaprazole (sodium)] was tested, and the Difference was −0.38.
Compound `Cc1ccc(NC(=O)c2ccc(CN3CCN(C)CC3)cc2)cc1Nc1nccc(-c2cccnc2)n1` [Imatinib] has a Difference of −0.36.

These compounds were tested on NCI-H292 lung cancer cells (assay: FDA drug screening, complete media vs cholesterol-free media with simvastatin (TABLE 2)). Conditions: NCI-H292 cells, FDA drug library screen, cholesterol-free media with simvastatin 0.04 μM.
Format: cell-based, human
In the case of `O=C(O)c1cc2ccccc2c(Cc2c(O)c(C(=O)O)cc3ccccc23)c1O.OCCOCCN1CCN(C(c2ccccc2)c2ccc(Cl)cc2)CC1` [Hydroxyzine (pamoate)], the “Cholesterol-free media + simvastatin (0.04 μM)” value is reported as 1.16.
In the case of `C[C@H](CCC(=O)O)[C@H]1CC[C@H]2[C@@H]3C[C@H](O)[C@@H]4C[C@H](O)CC[C@]4(C)[C@H]3CC[C@]12C` [Hyodeoxycholic acid], the “Cholesterol-free media + simvastatin (0.04 μM)” value is reported as 0.7549.

Same assay, conditions: NCI-H292 cells, FDA drug library screen, complete media
For `O=C(O)c1cc2ccccc2c(Cc2c(O)c(C(=O)O)cc3ccccc23)c1O.OCCOCCN1CCN(C(c2ccccc2)c2ccc(Cl)cc2)CC1` [Hydroxyzine (pamoate)], the “Complete Media” value was 1.053.
For `C[C@H](CCC(=O)O)[C@H]1CC[C@H]2[C@@H]3C[C@H](O)[C@@H]4C[C@H](O)CC[C@]4(C)[C@H]3CC[C@]12C` [Hyodeoxycholic acid], the “Complete Media” value was 0.9966.

Same assay, conditions: NCI-H292 cells, FDA library drug in cholesterol-free media with simvastatin 0.04 μM
With `CC(C)Cc1ccc(C(C)C(=O)O)cc1` (centres unmarked) [Ibuprofen] the “Cholesterol-free media + simvastatin (0.04 μM)” value was 1.512.
In the case of `CS(=O)(=O)Nc1cc2occ(NC=O)c(=O)c2cc1Oc1ccccc1` [Iguratimod], the “Cholesterol-free media + simvastatin (0.04 μM)” value is reported as 1.717.

Same assay, conditions: NCI-H292 cells, FDA library drug in complete media
In the case of `CS(=O)(=O)Nc1cc2occ(NC=O)c(=O)c2cc1Oc1ccccc1` [Iguratimod], the “Complete Media” value is reported as 1.252.

Same assay, conditions: NCI-H292 cells, cholesterol-free media with simvastatin 0.04 μM; FDA drug library screen (TABLE 2)
In the case of `Cc1ccc(NC(=O)c2ccc(CN3CCN(C)CC3)cc2)cc1Nc1nccc(-c2cccnc2)n1` [Imatinib], the “Cholesterol-free media + simvastatin (0.04 μM)” value is reported as 1.214.

Same assay, conditions: NCI-H292 cells, cholesterol-free media with simvastatin 0.04 μM; cell growth value in FDA drug screen
In the case of `C[C@]12CCC(=O)C=C1CC[C@@H]1[C@@H]2[C@@H](O)C[C@@]2(C)[C@H]1CC[C@]2(O)C(=O)CO` [Hydrocortisone], the “Cholesterol-free media + simvastatin (0.04 μM)” value is reported as 0.4287.
`COc1ccnc(C[S+]([O-])c2nc3cc(-n4cccc4)ccc3[nH]2)c1C` (centres unmarked) [Ilaprazole (sodium)] was tested, and the “Cholesterol-free media + simvastatin (0.04 μM)” value was 1.333.

Same assay, conditions: NCI-H292 cells, complete media; FDA drug library screen (TABLE 2)
For `Cc1ccc(NC(=O)c2ccc(CN3CCN(C)CC3)cc2)cc1Nc1nccc(-c2cccnc2)n1` [Imatinib], the “Complete Media” value was 1.199.

Same assay, conditions: NCI-H292 cells, complete media; cell growth value in FDA drug screen
For `C[C@]12CCC(=O)C=C1CC[C@@H]1[C@@H]2[C@@H](O)C[C@@]2(C)[C@H]1CC[C@]2(O)C(=O)CO` [Hydrocortisone], the “Complete Media” value was 0.4959.
With `COc1ccnc(C[S+]([O-])c2nc3cc(-n4cccc4)ccc3[nH]2)c1C` (centres unmarked) [Ilaprazole (sodium)] the “Complete Media” value was 1.428.

Same assay, conditions: NCI-H292 cells, drug in cholesterol-free media with simvastatin 0.04 μM
In the case of `O=c1[nH]c(=O)n([C@H]2C[C@H](O)[C@@H](CO)O2)cc1I` [Idoxuridine], the “Cholesterol-free media + simvastatin (0.04 μM)” value is reported as 1.124.

Same assay, conditions: NCI-H292 cells, drug in complete media
`O=c1[nH]c(=O)n([C@H]2C[C@H](O)[C@@H](CO)O2)cc1I` [Idoxuridine] was tested, and the “Complete Media” value was 0.9636.

Same assay, conditions: complete media minus cholesterol-free media + simvastatin (0.04 μM); >0 enhanced anti-cancer activity, about 0 neutral, <0 antagonist
Compound `Cc1ccc(NC(=O)c2ccc(CN3CCN(C)CC3)cc2)cc1Nc1nccc(-c2cccnc2)n1` [Imatinib] has a Difference of −0.01.

Same assay, conditions: complete media minus cholesterol-free media + simvastatin; >0 enhanced anti-cancer activity, about 0 neutral, <0 antagonist
`C[C@]12CCC(=O)C=C1CC[C@@H]1[C@@H]2[C@@H](O)C[C@@]2(C)[C@H]1CC[C@]2(O)C(=O)CO` [Hydrocortisone] was tested, and the Difference was 0.07.
With `C[C@H](CCC(=O)O)[C@H]1CC[C@H]2[C@@H]3C[C@H](O)[C@@H]4C[C@H](O)CC[C@]4(C)[C@H]3CC[C@]12C` [Hyodeoxycholic acid] the Difference was 0.24.
For `COc1ccnc(C[S+]([O-])c2nc3cc(-n4cccc4)ccc3[nH]2)c1C` (centres unmarked) [Ilaprazole (sodium)], the Difference was 0.10.

Same assay, conditions: complete media vs cholesterol-free media + simvastatin (0.04 μM); >0 enhanced anti-cancer activity, about 0 neutral, <0 antagonist
Work on `O=C(O)c1cc2ccccc2c(Cc2c(O)c(C(=O)O)cc3ccccc23)c1O.OCCOCCN1CCN(C(c2ccccc2)c2ccc(Cl)cc2)CC1` [Hydroxyzine (pamoate)] yielded a Difference of −0.11.
In the case of `CC(C)Cc1ccc(C(C)C(=O)O)cc1` (centres unmarked) [Ibuprofen], the Difference is reported as −0.36.
`O=c1[nH]c(=O)n([C@H]2C[C@H](O)[C@@H](CO)O2)cc1I` [Idoxuridine] showed a Difference of −0.16.
For `CS(=O)(=O)Nc1cc2occ(NC=O)c(=O)c2cc1Oc1ccccc1` [Iguratimod], the Difference was −0.47.
